Test results reported in ChEMBL document CHEMBL1201862, “PubChem BioAssay data set” (2004).
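Briefly, cells in 96-well plates were exposed to five compound concentrations for 48 h, and endpoints were estimated by linear interpolation. GI50: concentration for 50% inhibition of growth.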 Calls of active or inactive are those of the source. No stated cut-off is given here; in the data, active = GI50 up to about 1.1 µM and inactive = higher.

What was measured:
Test in all cases: growth of human tumour cells (NCI), 48 h
SW-620 = test system: SW-620
SK-OV-3 = test system: SK-OV-3
LXFL 529 = test system: LXFL 529
M14 = test system: M14
HT-29 = test system: HT-29
KM12 = test system: KM12
BT-549 = test system: BT-549
UO-31 = test system: UO-31
PC-3 = test system: PC-3
CAKI-1 = test system: CAKI-1
UACC-62 = test system: UACC-62
HOP-92 = test system: HOP-92
SK-MEL-2 = test system: SK-MEL-2
EKVX = test system: EKVX
SF-295 = test system: SF-295
HOP-18 = test system: HOP-18
SR = test system: SR
OVCAR-4 = test system: OVCAR-4
HL-60 = test system: HL-60
U-251 = test system: U-251

Measured: GI50

Clc1cccc(N2CCN(CCN3CCc4c([nH]c5ccccc45)C3c3cccnc3)CC2)c1 (stereo not given)
inactive: SW-620 > 64.6 µM | SK-OV-3 > 100 µM | LXFL 529 63.7 µM | M14 > 79.4 µM | HT-29 37 µM | KM12 8.05 µM | BT-549 > 100 µM | UO-31 > 100 µM | PC-3 > 86.7 µM | CAKI-1 > 100 µM | UACC-62 > 70 µM | HOP-92 > 52.5 µM | SK-MEL-2 61 µM | EKVX 14.5 µM | SF-295 69 µM | HOP-18 > 100 µM | SR 25.7 µM | OVCAR-4 31.4 µM | HL-60 26.3 µM | U-251 64.4 µM

O=C1CC(c2n[nH]c3ccccc23)C(=O)N1c1ccccc1 (stereo not given)
inactive: SW-620 > 84.1 µM | SK-OV-3 > 100 µM | LXFL 529 > 95.9 µM | M14 > 100 µM | HT-29 > 100 µM | KM12 > 100 µM | BT-549 > 100 µM | UO-31 > 100 µM | PC-3 > 100 µM | CAKI-1 > 100 µM | UACC-62 > 100 µM | HOP-92 > 78.2 µM | SK-MEL-2 > 100 µM | EKVX > 100 µM | SF-295 > 100 µM | HOP-18 > 100 µM | SR 36.5 µM | OVCAR-4 > 100 µM | HL-60 25.6 µM | U-251 > 100 µM

C[C@H]1CCC2C(OC(=O)[C@@H]2CN(C)C)[C@]2(C)C(=O)C=CC12O (stereo not given in full)
inactive: SW-620 3.24 µM | SK-OV-3 16.9 µM | LXFL 529 3.01 µM | M14 4.06 µM | HT-29 4.09 µM | KM12 4.69 µM | BT-549 5.37 µM | UO-31 10.9 µM | PC-3 14.2 µM | CAKI-1 7.06 µM | UACC-62 2.55 µM | HOP-92 2.79 µM | SK-MEL-2 9.44 µM | EKVX 4.02 µM | SF-295 13.2 µM | HOP-18 24.2 µM | SR 2.47 µM | OVCAR-4 5.62 µM | HL-60 1.65 µM | U-251 17.5 µM
